Test results published in publication PMC6271338, “Synthesis and Cytotoxic Evaluation of Alkoxylated Chalcones” (Molecules, 2014).

Experiments:
[1] = Cytotoxicity (SRB) against non-tumoral L02 cells; type: cell-based, human; details: human, L02 cells (non-tumoral human liver cell line); increasing concentrations up to 100 μM; mean ± SD of at least three independent experiments; read-out: Normal Human Cell Lines, CC50, L02
[2] = Cytotoxicity (SRB) against non-tumoral HMLE cells; type: cell-based, human; details: human, HMLE cells (non-tumoral human mammary epithelial cells); increasing concentrations up to 100 μM; mean ± SD of at least three independent experiments; read-out: Normal Human Cell Lines, CC50, HMLE
[3] = tested on: A549 cells; experiment: In vitro anti-proliferative SRB assay, A549; type: cell-based, human; details: for IC50: Homo sapiens, A549, increasing concentrations up to 30 μM, mean ± SD of at least three independent experiments; for SI (CC50 HMLE/IC50 A549) / SI (CC50 L02/IC50 A549): selectivity index; for SI (CC50 HMLE/IC50 A549): HMLE vs A549; for SI (CC50 L02/IC50 A549): L02 vs A549
[4] = tested on: MCF-7 cells; experiment: In vitro anti-proliferative SRB assay, MCF-7; type: cell-based, human; details: for IC50: Homo sapiens, MCF7, increasing concentrations up to 30 μM, mean ± SD of at least three independent experiments; for SI (CC50 HMLE/IC50 MCF7) / SI (CC50 L02/IC50 MCF7): selectivity index; for SI (CC50 HMLE/IC50 MCF7): HMLE vs MCF7; for SI (CC50 L02/IC50 MCF7): L02 vs MCF7
[5] = tested on: HepG2 cells; experiment: In vitro anti-proliferative SRB assay, HepG2; type: cell-based, human; details: for IC50: Homo sapiens, HepG2, increasing concentrations up to 30 μM, mean ± SD of at least three independent experiments; for SI (CC50 HMLE/IC50 HepG2) / SI (CC50 L02/IC50 HepG2): selectivity index; for SI (CC50 HMLE/IC50 HepG2): HMLE vs HepG2; for SI (CC50 L02/IC50 HepG2): L02 vs HepG2
[6] = tested on: five human cancer cell lines (HepG2, HeLa, MCF-7, A549 and SW1990); experiment: In vitro anti-proliferative SRB assay, summary statements over the five-line panel; type: cell-based
Protocol: With a aim of identifying potential anticancer agents with enhanced levels of activity, as well as verifying the conclusions provided above, we took a14 as a starting compound, and then designed and synthesized a series of chalcones b1–42 bearing methoxy groups at the 2' and 6'-positions of the B-ring, whilst varying the substituents on the A-ring. The cytotoxicities of the resulting chalcones were evaluated in vitro against five human cancer cell lines and other two non-tumoral cell lines, including HepG2, HeLa, MCF-7, A549, SW1990, HMLE and L02, and the results are shown in Table 2.
HepG2 and MCF7 cells were grown in the Eagle’s minimum essential medium with Earle’s balanced salts (MEM-EBSS) medium, HeLa, A549 and L02 cells were grown in Dulbecco’s Modified Eagle Media (DMEM), SW1990 cells were grown in RPMI-1640 medium, and HMLE cell were grown in DMEM/F-12 medium. The media were supplemented with 100 U/mL penicillin, […] streptomycin and 10% fetal bovine serum (FBS), and incubated at 37 °C in a humidified atmosphere containing 5% CO2.
Cells were seeded into 96-well plates (4000 cells/well) and incubated at 37 °C in a humidified 5% CO2 atmosphere. After 24 h, the cells were treated with different concentrations of the compounds for 48 h in triplicate to generate dose-response curves. Cell viability was evaluated using the sulforhodamine B (SRB) assay as previous described. […] Etoposide was used as the positive control.

[7] = tested on: HeLa cells; experiment: In vitro anti-proliferative SRB assay, HeLa; type: cell-based, human; details: for IC50: Homo sapiens, HeLa, increasing concentrations up to 30 μM, mean ± SD of at least three independent experiments; for SI (CC50 HMLE/IC50 Hela) / SI (CC50 L02/IC50 Hela): selectivity index; for SI (CC50 HMLE/IC50 Hela): HMLE vs HeLa; for SI (CC50 L02/IC50 Hela): L02 vs HeLa
[8] = tested on: SW1990 cells; experiment: In vitro anti-proliferative SRB assay, SW1990; type: cell-based, human; details: for IC50: Homo sapiens, SW1990, increasing concentrations up to 30 μM, mean ± SD of at least three independent experiments; for SI (CC50 HMLE/IC50 SW1990) / SI (CC50 L02/IC50 SW1990): selectivity index; for SI (CC50 HMLE/IC50 SW1990): HMLE vs SW1990; for SI (CC50 L02/IC50 SW1990): L02 vs SW1990
[9] = tested on: human mammary epithelial cell (HMLE); experiment: Cytotoxicity (SRB) against non-tumoral HMLE cells; type: cell-based; details: HMLE versus the five tumoral cell lines
[10] = most of their in vitro IC50 values against the five human cancer lines
[11] = Homo sapiens, nearly all of the IC50 values

IC50 [3]	IC50 [4]	IC50 [5]	melting point	IC50 [6, 10]	IC50 [7]	IC50 [8]	IC50 [6, 11]	Structure (SMILES)	CC50 at 48 h [1]	CC50 at 48 h [2]	SI (CC50 HMLE/IC50 A549) [3]	SI (CC50 L02/IC50 A549) [3]	SI (CC50 HMLE/IC50 MCF7) [4]	SI (CC50 L02/IC50 MCF7) [4]	SI (CC50 HMLE/IC50 HepG2) [5]	SI (CC50 L02/IC50 HepG2) [5]	SI (CC50 HMLE/IC50 Hela) [7]	SI (CC50 L02/IC50 Hela) [7]	SI (CC50 HMLE/IC50 SW1990) [8]	SI (CC50 L02/IC50 SW1990) [8]	further results
6.35 ± 0.32 µM	5.6 ± 0.17 µM	2.05 ± 0.22 µM	109 to 111.4 °C	< 10 µM	5 ± 0.03 µM	10 ± 0.14 µM	–	COc1ccccc1C(=O)/C=C/c1c(OC)cccc1OC [b6, (E)-1-(2-Methoxyphenyl)-3-(2,6-dimethoxyphenyl)prop-2-en-1-one]	8.78 ± 1.21 µM	4.01 ± 0.05 µM	0.6	1.4	0.7	1.6	2.0	4.3	0.8	1.8	0.4	0.9	–
4.16 ± 0.72 µM	5.6 ± 0.06 µM	1.59 ± 0.15 µM	121 to 122 °C	< 10 µM	4.56 ± 0.22 µM	9.64 ± 0.18 µM	–	COc1ccc(OC)c(C(=O)/C=C/c2c(OC)cccc2OC)c1 [b18, (E)-1-(2,5-Dimethoxyphenyl)-3-(2,6-dimethoxyphenyl)prop-2-en-1-one]	17 ± 2.73 µM	2.48 ± 0.34 µM	0.6	4.1	0.4	3.0	1.6	10.7	0.5	3.7	0.3	1.8	–
> 30 µM	> 30 µM	> 30 µM	126.5 to 127.8 °C	–	> 30 µM	> 30 µM	> 30 µM	COc1cccc(OC)c1/C=C/C(=O)c1cc(C(F)(F)F)cc(C(F)(F)F)c1 [b42, (E)-1-(3,5-bis(Trifluoromethyl)phenyl)-3-(2,6-dimethoxyphenyl)prop-2-en-1-one]	> 100 µM	> 100 µM	–	–	–	–	–	–	–	–	–	–	–
> 30 µM	> 30 µM	> 30 µM	147.3 to 148.6 °C	–	> 30 µM	> 30 µM	> 30 µM	COc1cccc(OC)c1/C=C/C(=O)c1ccc([N+](=O)[O-])cc1 [b40, (E)-1-(4-Nitrophenyl)-3-(2,6-dimethoxyphenyl)prop-2-en-1-one]	> 100 µM	> 100 µM	–	–	–	–	–	–	–	–	–	–	–
17.3 ± 0.76 µM	23.1 ± 0.82 µM	17.4 ± 1.01 µM	218.7 to 220.2 °C	–	24.84 ± 0.17 µM	> 30 µM	–	COc1cccc(OC)c1/C=C/C(=O)c1ccc(O)cc1O [b27, (E)-1-(2,4-Dihydroxyphenyl)-3-(2,6-dimethoxyphenyl)prop-2-en-1-one]	35.5 ± 5.72 µM	> 100 µM	>5.8	2.1	>4.3	1.5	>5.8	2.0	>4.0	1.4	–	<1.2	SI between the CC50 in HMLE and IC50 in tumoral cells [9]: 2–7 fold
7.32 ± 0.29 µM	8.56 ± 0.75 µM	5.7 ± 0.09 µM	148.6 to 150.3 °C	< 10 µM	7.23 ± 0.07 µM	10.07 ± 0.03 µM	–	COc1cccc(OC)c1/C=C/C(=O)c1cccc(N)c1 [b23, (E)-1-(3-Aminophenyl)-3-(2,6-dimethoxyphenyl)prop-2-en-1-one]	43.2 ± 11.7 µM	11.4 ± 0.76 µM	1.6	5.9	1.3	5.0	2.0	7.6	1.6	6.0	1.1	4.3	–
> 30 µM	> 30 µM	20.4 ± 0.21 µM	144.3 to 145.9 °C	–	> 30 µM	> 30 µM	> 30 µM	COc1cccc(OC)c1/C=C/C(=O)c1ccc(C#N)cc1 [b30, (E)-1-(4-Cyanophenyl)-3-(2,6-dimethoxyphenyl)prop-2-en-1-one]	> 100 µM	12.6 ± 2.82 µM	<0.4	–	<0.4	–	0.6	>4.9	<0.4	–	<0.4	–	–
1.75 ± 0.15 µM	2.4 ± 0.08 µM	0.25 ± 0.03 µM	121.7 to 123.5 °C	< 10 µM	0.87 ± 0.25 µM	1.24 ± 0.08 µM	–	COc1cccc(OC)c1/C=C/C(=O)c1ccc(-c2ccccc2)cc1 [b22, (E)-1-([1,1'-Biphenyl]-4-yl)-3-(2,6-dimethoxyphenyl)prop-2-en-1-one]	14.5 ± 6.58 µM	2.21 ± 0.09 µM	1.3	8.3	0.9	6.1	8.8	58.2	2.5	16.7	1.8	11.7	fold as potent than etoposide ([5]; HepG2 cells, ratio of IC50 values versus etoposide): 20.4 fold; fold as potent than etoposide ([8]; SW1990 cells, ratio of IC50 values versus etoposide): 23.6 fold
> 30 µM	> 30 µM	24.4 ± 5.87 µM	145.3 to 146.7 °C	–	29.1 ± 3.06 µM	> 30 µM	> 30 µM	COc1cccc(OC)c1/C=C/C(=O)c1cccc(C(F)(F)F)c1 [b41, (E)-1-(3-(Trifluoromethyl)phenyl)-3-(2,6-dimethoxyphenyl)prop-2-en-1-one]	> 100 µM	> 100 µM	–	–	–	–	>4.1	>4.1	>3.4	>3.4	–	–	–
> 30 µM	> 30 µM	> 30 µM	172.3 to 173.7 °C	–	> 30 µM	> 30 µM	> 30 µM	COc1cccc(OC)c1/C=C/C(=O)c1cccc([N+](=O)[O-])c1 [b39, (E)-1-(3-Nitrophenyl)-3-(2,6-dimethoxyphenyl)prop-2-en-1-one]	> 100 µM	> 100 µM	–	–	–	–	–	–	–	–	–	–	–
5.78 ± 0.11 µM	4.79 ± 0.13 µM	4.14 ± 0.11 µM	105.3 to 107.2 °C	< 10 µM	5.02 ± 0.09 µM	7.67 ± 0.04 µM	–	CCOc1ccc(C(=O)/C=C/c2c(OC)cccc2OC)cc1OC [b16, (E)-1-(4-Ethoxy-3-methoxyphenyl)-3-(2,6-dimethoxyphenyl)prop-2-en-1-one]	44.7 ± 8.15 µM	9.15 ± 1.33 µM	1.6	7.7	1.9	9.3	2.2	10.8	1.8	8.9	1.2	5.8	–
